Source: US20260256922A1, “PRODRUGS USEFUL FOR REDUCING ANTHRACYCLINE CARDIOTOXICITY” (WAKE FOREST UNIVERSITY HEALTH SCIENCES, priority 2022, published 2026)

Assays:
H9C2 cardiomyoblasts = experiment: Uptake into H9C2 cardiomyoblasts by live-cell confocal microscopy; type: cell-based, rat
Method: FIG. 4. Uptake of DOX and prodrugs c1 and c2 by H9C2 cardiomyoblasts. H9C2 cells cultures grown overnight on chambered coverslips in media with 10% serum were switched to Fluorobrite DMEM imaging media supplemented with 5% serum and prepared for live-cell imaging on a Zeiss LSM 880 confocal microscope, then 10 µM of c1, c2, or DOX was added and images were taken every 10 min (averaged every 30 min) for 18 h. Approximately 20 cells present in each field of view were averaged for each sample and time point; normalized and averaged data from two replicates each±SEM were included for c1 and DOX. An earlier independent trial yielded very similar results (Fig. S1).
Uptake of DOX and prodrugs into H9C2 cardiomyoblasts. Before comparing the biological effects of treatments by DOX and prodrugs, it was important to know their time dependence of accumulation into the H9C2 cardiomyoblasts under investigation. For this, confocal microscopy of live cells in culture was used to track in real time the accumulation of the fluorescent molecules into the cells, allowing direct comparisons between c1, c2 and Dox. […] Thus, any biological effects observed using c1 rather than DOX will not be due to limited cellular uptake.
To evaluate drug uptake, H9C2 cells were plated at a density of 20,000 per well on 24 well #1.5 polymer chambered coverslips (Ibidi) in media including 10% FBS and allowed to adhere for ~20 h. Prior to imaging analysis, the media was replaced with Fluorobrite DMEM imaging media (Gibco) supplemented with 5% FBS. To 1 mL of media in each well was added either vehicle (DMSO), or a 20 mM stock solution of c1, c2, or DOX to give final concentrations of 10 or 20 µM drug and 0.1% DMSO. […] DOX and the prodrugs were detected with excitation by a 458 nm laser at 0.3% and emission from 535-648 nm.
Each position consisted of a 3 slice z-stack that was compressed with a maximum intensity projection for analysis. […] The mean intensity for both channels was calculated, normalized, and then averaged to 30 min time points.

[1] = Methylene blue assay of H2S release; type: physicochemical; conditions: for H2S released: c1 40 μM
Method: FIG. 3. Methylene blue assay depicting the time-dependent release of H2S from c1 (40 μM) while in the presence of H2O2 (40 μM) and carbonic anhydrase (CA). Plotted as the mean±SEM from three independent experiments. Data were collected in the presence (circles) or absence (squares) of H2O2.
H2S release from c1. We confirmed the time-dependent liberation of H2S using a methylene blue assay^46 and measuring the resulting absorbance at 670 nm after c1 exposure to H2O2 (FIG. 3, circle). Using a calibration curve generated with Na2S, we determined that c1 (40 μM) was able to release more than 16 μM H2S while in the presence of both H2O2 ([…]) and carbonic anhydrase (CA). […] As a control, the same assay was also run in the absence of CA (data not shown). Under these conditions, c1 exposure to H2O2 yielded small amounts of H2S ([…]). This is presumably due to isocyanate formation and the direct release of H2S from the breakdown of 4.
With carbonic anhydrase: Six separate vials were each filled with 150 μL of freshly degassed PBS (pH 7.4) containing Zn(OAc)2 (2 mM), carbonic anhydrase (0.1 mg/mL), and DOX (80 μM). Next, 150 μL of Na2S stock solution in freshly degassed PBS (pH 7.4), and at differing concentrations (6.25, 12.5, 25.0, 50.0, 100 and 200.0 μM), was added to each vial to give a final volume of 300 μL and a final concentration of 3.125, 6.25, 12.5, 25.0, 50.0, and 100.0 µM Na2S. […] The MB solution was transferred to a 1.0 mL UV cuvette and the absorbance at 670 nm was recorded.
Without carbonic anhydrase: Six separate vials were each filled with 150 μL of freshly degassed PBS (pH 7.4) containing Zn(OAc)2 (2 mM) and DOX (80 μM). […] The MB solution was transferred to a 1.0 mL UV cuvette and the absorbance at 670 nm was recorded. […]
With carbonic anhydrase: To a 20 mL scintillation vial containing 9770 μL of freshly degassed PBS (pH 7.4) was added stock solutions of carbonic anhydrase (50 μL), H2O2 (40 μL), Zn(OAc)2 (100 μL), and c1 (or c2) (40 μL). […] After reacting for 30 min in the dark, absorbance measurements were recorded at 670 nm. […]

## COc1cccc2c1C(=O)c1c(O)c3c(c(O)c1C2=O)C[C@@](O)(C(=O)CO)C[C@@H]3O[C@H]1C[C@H](NC(=S)OCc2ccc(B3OC(C)(C)C(C)(C)O3)cc2)[C@H](O)[C@H](C)O1 [c1]
H9C2 cardiomyoblasts; H9C2 cells, 10 μM, fluorescence
  time to maximal signal (cell accumulation): ~ 2 h
H9C2 cardiomyoblasts; imaging over 18 h
  accumulation in cells compared with DOX: accumulated rapidly
[1]
  share of H2S production via COS hydrolysis facilitated by CA: ~ 70%
[1]; absence of peroxides
  H2S released: negligible amounts of H2S
[1]; in presence of H2O2 and carbonic anhydrase
  H2S released: more than 16 μM
